Data as given in patent US5519034A, “Tetraisoquinoline compounds which have useful pharmaceutical utility” (The Boots Company PLC, priority 1991, dated 1996).
pKi: −log10 of the molar value. Like-named read-outs stand apart in the source and are kept apart here.

What was measured:
D1 dopamine receptors = molecular target: T1, D1 dopamine receptors (Rattus norvegicus, UniProt P18901); assay: D1 dopamine receptor binding: inhibition of tritiated SCH 23390 binding, rat striatal samples; parameters: species or system rat (male Charles River CD rats); details: rat striatum, tritiated SCH 23390, pH 7.4, 37° C., 30 minutes
T1 construct: Striatal samples from the brains of male Charles River CD rats; from tissue; host or cells: striatum of male Charles River CD rats (washed membrane pellet)
T1 sequence (P18901 whole entry): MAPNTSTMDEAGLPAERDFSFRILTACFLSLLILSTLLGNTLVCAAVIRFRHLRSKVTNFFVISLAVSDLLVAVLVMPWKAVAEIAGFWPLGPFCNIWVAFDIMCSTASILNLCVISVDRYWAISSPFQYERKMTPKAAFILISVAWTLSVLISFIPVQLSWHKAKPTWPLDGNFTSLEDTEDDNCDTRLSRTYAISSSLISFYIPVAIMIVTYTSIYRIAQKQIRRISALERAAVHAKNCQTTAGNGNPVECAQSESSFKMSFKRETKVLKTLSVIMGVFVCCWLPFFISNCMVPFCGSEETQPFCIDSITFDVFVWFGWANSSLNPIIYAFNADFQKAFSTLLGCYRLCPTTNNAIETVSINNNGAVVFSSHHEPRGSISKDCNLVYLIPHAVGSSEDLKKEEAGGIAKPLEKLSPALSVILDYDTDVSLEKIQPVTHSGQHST
Protocol: (§1) Striatal samples from the brains of male Charles River CD rats weighing between 140-250 g were homogenised in ice-cold 50 mM Tris-HCl buffer (pH 7.4 when measured at 25° C. for D1 binding assays and pH 7.7 when measured at 25° C. for D2 binding assays) and centrifuged for 10 minutes (at 21,000 g when used for D1binding assay and 40,000 g when used for D2binding assays). The pellet was resuspended in the same buffer, again centrifuged and the final pellet stored at -80° C. Before each test the pellet was resuspended in 50 mM Tris-HCl buffer containing 120 mM NaCl, 5 mM KCl, 2 mM CaCl2 and 1 mM MgCl2 at pH 7.4 for the D1 binding assays and at pH 7.7 with the addition of 6 mM ascorbic acid for the D2 binding assays. Aliquots of this suspension were then added to tubes containing the ligand and either the compound under test or buffer. For the D1 binding assays the ligand was tritiated SCH 23390 and the mixture was incubated at 37° C. for 30 minutes before the incubation was terminated by rapid filtration. For the D2 binding assays the ligand was tritiated (S)-sulpiride and the mixture was incubated at 4° C. for 40 minutes before the incubation was terminated by rapid filtration. Non-specific binding was determined experimentally by the addition of saturating concentrations of chloropromazine or spiroperidol for D1 and D2 receptors respectively.
(§2) The filters were washed with ice-cold Tris-HCl buffer and dried. The filters were punched out on to vials containing scintillation fluid and were left for about 20 hours before being counted by scintillation spectrophotometry. Displacement curves were produced over a range of concentrations of the compound under test and the concentration which gave a 50% inhibition of specific binding (IC50) obtained from the curve. The inhibition coefficient Ki was then calculated using the formula [formula] in which [ligand] is the concentration of the tritiated ligand used and KD is the equilibrium dissociation constant for the ligand.
(§3) In some cases Ki values for D2 binding were estimated from single concentration data by the application of the Langmuir adsorption isotherm equation. These cases are indicated by an "E" in the last two columns of Table I. In other cases it was not possible to determine or estimate the Ki and the Ki value is given as greater than (>) that which would result from the application of the above formula to the highest concentration which displaced ≤50% of the ligand.

D2 dopamine receptors = molecular target: T2, D2 dopamine receptors (Rattus norvegicus, UniProt P61169); assay: D2 dopamine receptor binding: inhibition of tritiated (S)-sulpiride binding, rat striatal samples; parameters: species or system rat (male Charles River CD rats); details: for pKi: rat striatum, tritiated (S)-sulpiride; for Ki for D2 / Ki for D1: ratio to two significant figures
T2 construct: Striatal samples from the brains of male Charles River CD rats; from tissue; host or cells: striatum of male Charles River CD rats (washed membrane pellet)
T2 sequence (P61169 whole entry): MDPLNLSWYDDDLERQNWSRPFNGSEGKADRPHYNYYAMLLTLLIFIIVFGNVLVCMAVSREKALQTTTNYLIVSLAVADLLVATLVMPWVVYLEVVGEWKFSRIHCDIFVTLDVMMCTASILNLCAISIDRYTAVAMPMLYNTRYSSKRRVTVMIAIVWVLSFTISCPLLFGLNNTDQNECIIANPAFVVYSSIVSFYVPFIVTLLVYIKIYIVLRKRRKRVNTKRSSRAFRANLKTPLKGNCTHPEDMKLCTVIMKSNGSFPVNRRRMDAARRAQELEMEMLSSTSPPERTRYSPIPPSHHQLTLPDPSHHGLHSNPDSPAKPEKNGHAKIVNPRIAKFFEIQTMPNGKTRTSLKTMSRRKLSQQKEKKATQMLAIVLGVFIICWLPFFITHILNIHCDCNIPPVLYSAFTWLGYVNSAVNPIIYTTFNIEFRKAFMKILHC
Protocol: as §1, §2, §3

[1] = pH 7.7, 4° C., 40 minutes, > = from highest concentration which displaced ≤50% of the ligand, read-out: Ki for D2 binding
[2] = estimated from single concentration data by Langmuir adsorption isotherm equation, read-out: Ki for D2 binding (marked E)

Structure (SMILES)	pKi (D1 dopamine receptors)	pKi (D2 dopamine receptors; [1])	Ki for D2 / Ki for D1 (D2 dopamine receptors)	pKi (D2 dopamine receptors; [2])
CN1CCc2cc(O)c(O)cc2C1C1(c2ccc(Br)cc2)CCC1 (stereo not drawn) [Example 17, 1-[1-(4-bromophenyl)cyclobutyl]-6,7-dihydroxy-2-methyl-1,2,3,4-tetrahydroisoquinoline]	8.41	5.05	2300	–
CN1CCc2cc(O)c(O)cc2C1C1(c2ccc(Cl)c(Cl)c2)CCC1 (stereo not drawn) [Example 18, 1-[1-(3,4-dichlorophenyl)cyclobutyl]-6,7-dihydroxy-2-methyl-1,2,3,4-tetrahydroisoquinoline]	7.08	5.36	53	–
CN1CCc2cc(O)c(O)cc2C1C1(c2ccc(O)cc2)CCCC1 (stereo not drawn) [Example 19, 6,7-dihydroxy-1-[1-(4-hydroxyphenyl)cyclopentyl]-2-methyl-1,2,3,4-tetrahydroisoquinoline]	6.72	–	–	5.15
CN1CCc2cc(Br)c(O)cc2C1C1(c2ccccc2)CCC1 (stereo not drawn) [Example 20, 6-bromo-7-hydroxy-2-methyl-1-(1-phenylcyclobutyl)-1,2,3,4-tetrahydrosoqunoline]	7.51	< 5.30	> 160	–
CN1CCc2cc(Cl)c(O)cc2C1C1(c2ccccc2Cl)CCC1 (stereo not drawn) [Example 22, 6-chloro-1-[1-(2-chlorophenyl)cyclobutyl]-7-hydroxy-2-methyl-1,2,3,4-tetrahydroisoquinoline]	8.64	5.74	780	–
CN1CCc2c(O)cccc2C1C1(c2ccc(Cl)cc2)CCC1 (stereo not drawn) [Example 26, 1-[1-(4-chlorophenyl)cyclobutyl]-5-hydroxy-2-methyl-1,2,3,4-tetrahydroisoquinoline]	6.25	–	–	5.15
CN1CCc2cc(O)c(O)cc2C1C1(c2ccccc2)CC1 (stereo not drawn) [Example 27, 6,7-dihydroxy-2-methyl-1-(1-phenylcyclopropyl)-1,2,3,4-tetrahydroisoquinoline]	6.72	5.24	30	–
CN1CCc2cc(Cl)c(O)cc2C1C1(c2ccccc2)CCC1 (stereo not drawn) [Example 28, 6-chloro-7-hydroxy-2-methyl-1-(1-phenylcyclobutyl)-1,2,3,4-tetrahydroisoquinoline]	7.96	5.44	330	–
CN1CCc2cc(O)c(O)cc2C1C1(c2ccccc2)CCCCC1 (stereo not drawn) [Example 29, 6,7-dihydroxy-2-methyl-1-(1-phenylcyclohexyl)-1,2,3,4-tetrahydroisoquinoline]	6.92	–	–	5.15
CN1CCc2cc(Cl)c(O)cc2C1C1(c2ccccc2)CC(C)(C)C1 (stereo not drawn) [Example 30, 6-chloro-7-hydroxy-2-methyl-1-(3,3-dimethyl-1-phenylcyclobutyl)-1,2,3,4-tetrahydroisoquinoline]	7.18	< 5.30	> 76	–

Other lines, results leading:

pKi (D1 dopamine receptors)	pKi (D2 dopamine receptors; [1])	Ki for D2 / Ki for D1 (D2 dopamine receptors)	pKi (D2 dopamine receptors; [2])	Structure (SMILES)
6.70	< 5.30	> 25	–	CN1CCc2cc(O)c(O)cc2C1C1(c2ccccc2)CC(C)(C)C1 (stereo not drawn) [Example 21, 6,7-dihydroxy-2-methyl-1-(3,3-dimethyl-1-phenylcyclobutyl)-1,2,3,4-tetrahydroisoquinoline]
7.74	4.82	830	–	CN1CCc2cc(O)c(O)cc2C1C1(c2ccccc2C(F)(F)F)CCC1 (stereo not drawn) [Example 23, 6,7-dihydroxy-2-methyl-1-[1-(2-trifluoromethylphenyl)cyclobutyl]-1,2,3,4-tetrahydroisoquinoline]
8.72	5.77	890	–	CN1CCc2cc(F)c(O)cc2C1C1(c2ccccc2Cl)CCC1 (stereo not drawn) [Example 24, 1-[1-(2-chlorophenyl)cyclobutyl]-6-fluoro-7-hydroxy-2-methyl-1,2,3,4-tetrahydroisoquinoline]
7.72	2.27	280000	–	CN1CCc2cc(F)c(O)cc2C1C1(c2ccccc2)CCC1 (stereo not drawn) [Example 25, 6-fluoro-7-hydroxy-2-methyl-1-(1-phenylcyclobutyl)-1,2,3,4-tetrahydroisoquinoline]
